From US20260250318A1, “COMPOSITIONS AND METHODS FOR CROSSING THE BLOOD BRAIN BARRIER” (VOYAGER THERAPEUTICS, INC., priority 2022, published 2026)

Tested on: brains, heart, liver, muscle, and DRG of the NHPs
Assay: Maturation of TTM-001 and TTM-002 capsids, NGS enrichment in NHP tissues
Format: in vivo
Details: NGS, relative to AAV9 control; for Fold Enrichment relative to AAV9, Liver RNA (NHP): TTM-001 and TTM-002 matured AAV capsid variants
Text: This Example describes maturation of the AAV9 capsid variants, TTM-001 (SEQ ID NO: 981 (amino acid) and 983 (DNA), comprising SEQ ID NO: 941 (encoded by SEQ ID NO: 942)) and TTM-002 (SEQ ID NO: 982 (amino acid) and 984 (DNA), comprising SEQ ID NO: […] (encoded by SEQ ID NO: 944)) in NHPs to further enhance their transduction and biodistribution in the central nervous system as well as other tissues, and evolve the AAV capsid variants to provide further cross-species compatibility. Two approaches were used to mature the TTM-001 and TTM-002 capsid sequences in order to randomize and mutate within and around the peptide insert comprised within loop IV of the capsid variant. […] In the first maturation approach, sets of three contiguous amino acids were randomized across the mutagenesis region in the TTM-001 and TTM-002 sequences, which spanned from position 450 to position 466, numbered according to SEQ ID NO: 981 and 982. In the second maturation approach, mutagenic primers were used to introduce point mutations at a low frequency, scattered across the mutagenesis region in the TTM-001 and TTM-002 sequences ranging from position 449 to position 466, numbered according to SEQ ID NO: 981 and 982. AAV capsid variants arising from each maturation approach for TTM-001 and TTM-002 were pooled together, for subsequent testing and characterization in NHPs.
The library of pooled matured AAV capsid variants generated using the first maturation approach and the second maturation approach for the TTM-001 and TTM-002 AAV capsid variants were injected into two NHPs. […] Following RNA recovery and RT-PCR amplification, a systematic NGS enrichment analysis was performed to calculate the fold enrichment ratio relative to an AAV9 control, and the peptides comprised within the variants were identified.
Following the RNA recovery and NGS analysis from the second maturation approach, approximately 680,000 capsid variants were identified. The 680,000 matured capsid variants were then filtered based on samples with a raw virus count greater than 10 and a coefficient of variance (CV) of less than 1, which was calculated for each peptide across the brain samples taken from the two NHPs. […] Using this filtering criteria, this led to approximately 64,000 matured capsid variants.

Row | Sequence | Fold Enrichment relative to AAV9, DRG (NHP) [fold] | Fold Enrichment relative to AAV9, Brain (NHP) [fold] | Fold Enrichment relative to AAV9, Heart (NHP) [fold] | Fold Enrichment relative to AAV9, Liver DNA (NHP) [fold] | Fold Enrichment relative to AAV9, Liver RNA (NHP) [fold] | Fold Enrichment relative to AAV9, Muscle (NHP) [fold]
1 | KTINGSGSPHSKRVVQQT | 0.000 | 0.000 | 0.000 | 1.639 | 11.094 | 0.000
2 | KTINGSGSPHSKRYTQQT | 0.000 | 0.000 | 0.000 | 9.412 | 25.267 | 0.000
3 | KTINGSGSPHSKSEQQQT | 0.000 | 0.000 | 0.000 | 1.769 | 11.785 | 0.000
4 | KTINGSGSPHSKTRKQQT | 0.000 | 0.000 | 0.000 | 2.858 | 36.010 | 0.000
5 | KTINGSGSPHSKVRMQQT | 0.000 | 0.000 | 0.000 | 1.835 | 11.572 | 0.000
6 | KTINGSGSPHSKWGLQQT | 0.000 | 0.000 | 0.000 | 2.639 | 17.543 | 0.000
7 | KTINGSGSPHSKWKSQQT | 0.000 | 0.000 | 4.904 | 1.239 | 20.390 | 0.163
8 | KTINGSGSPHSKWRLQQT | 0.000 | 0.000 | 0.000 | 2.037 | 68.083 | 0.000
9 | KTINGSGSPHSKYFMQQT | 0.000 | 0.000 | 0.000 | 2.993 | 57.350 | 0.000
10 | KTINGSGSPHSLAWNQQT | 0.000 | 0.000 | 0.000 | 4.746 | 29.015 | 0.000
11 | KTINGSGSPHSLCLNQQT | 0.000 | 0.000 | 0.000 | 1.790 | 17.028 | 0.000
12 | KTINGSGSPHSLPYNQQT | 0.000 | 0.000 | 0.000 | 2.048 | 14.792 | 0.000
13 | KTINGSGSPHSLWKNQQT | 0.000 | 0.000 | 0.000 | 4.010 | 45.796 | 0.000
14 | KTINGSGSPHSLYQNQQT | 0.000 | 0.000 | 0.000 | 1.503 | 11.590 | 0.000
15 | KTINGSGSPHSLYWNQQT | 0.000 | 0.000 | 0.000 | 0.000 | 53.262 | 0.000
16 | KTINGSGSPHSMCQNQQT | 0.000 | 0.000 | 0.000 | 1.348 | 37.209 | 0.000
17 | KTINGSGSPHSMCTNQQT | 0.000 | 0.000 | 0.000 | 0.392 | 13.114 | 0.000
18 | KTINGSGSPHSMYMNQQT | 0.000 | 0.000 | 0.000 | 5.840 | 81.106 | 0.000
19 | KTINGSGSPHSPPDNQQT | 0.000 | 0.000 | 0.000 | 0.033 | 12.973 | 0.000
20 | KTINGSGSPHSRCPNQQT | 0.000 | 0.000 | 0.000 | 4.890 | 39.529 | 0.000
21 | KTINGSGSPHSRCRNQQT | 0.000 | 0.000 | 0.000 | 5.150 | 64.416 | 0.000
22 | KTINGSGSPHSRFWNQQT | 0.000 | 0.000 | 0.000 | 6.955 | 51.225 | 0.000
23 | KTINGSGSPHSRMRNQQT | 0.000 | 0.000 | 0.000 | 2.816 | 48.902 | 0.000
24 | KTINGSGSPHSSCTNQQT | 0.000 | 0.000 | 0.000 | 3.363 | 11.382 | 0.000
25 | KTINGSGSPHSTCLNQQT | 0.000 | 0.000 | 0.000 | 4.762 | 11.132 | 0.000
